According to patent US4864023A, “Pyrido(3,2,1-IJ)-1,3,4-benzoxadiazine derivatives” (priority 1988, dated 1989):
≈ marks a conversion by molar mass, not a printed value. Read-outs that look alike come from different tables or passages of the source.

Assays:
[1] = test system: Bacteroides distasonis NR 2578; assay: in vitro antibacterial activity, standard agar dilution method; assay type: cell-based; details: Parabacteroides distasonis, NR2578, anaerobic, read-out: minimum inhibitory concentration (MIC)
[2] = test system: Klebsiella pneumoniae FDA PCI 602; assay: as above; assay type: cell-based; details: FDAPCI602, aerobic, read-out: minimum inhibitory concentration (MIC)
[3] = test system: Staphylococcus epidermidis IFO 12993; assay: as above; assay type: cell-based; details: IFO12993, aerobic, read-out: minimum inhibitory concentration (MIC)
[4] = test system: Pseudomonas aeruginosa NR 2950; assay: as above; assay type: cell-based; details: NR2950, aerobic, read-out: minimum inhibitory concentration (MIC)
[5] = test system: Escherichia coli ML4707; assay: in vivo therapeutic efficacy, lethal systemic infection in mice; details: Escherichia coli, 120 h, E. coli ML4707 i.p. infection, ICR mice, mortality 5 days, read-out: 50% effective dose (ED50)
Method: (§1) The in vivo antibacterial activities of pyrido[3,2,1-ij]-1,3,4-benzoxadiazine derivatives prepared by Example 5, Example 30, Example 65 and Example 66 as mentioned below were tested against lethal infection of Escherichia coli ML4707, Pseudomonas aeruginosa 4au542 and Streptococcus pneumoniae 6-001. ICR mice weighing about 20 g were infected by intraperitoneal injection of a corresponding bacterial suspension. The test compounds were administered orally or subcutaneously at the time of injection. […] The respective 50% effective dose (ED50, mg/kg) which protects 50% of the animals from death caused by infection, is shown in Table 3.

[6] = test system: Streptococcus pneumoniae 6-001; assay: as above; details: Streptococcus pneumoniae, 6001, po, 120 h; S. pneumoniae 6-001 i.p. infection, ICR mice, p.o. at time of injection, mortality 5 days; read-out: 50% effective dose (ED50)
Method: as §1

[7] = test system: Proteus vulgaris OX19 ATCC 6898; assay: in vitro antibacterial activity, standard agar dilution method; assay type: cell-based; details: ATCC6898, aerobic, read-out: minimum inhibitory concentration (MIC)
[8] = test system: Bordetella bronchiseptica ATCC 4617; assay: as above; assay type: cell-based; details: ATCC4617, aerobic, read-out: minimum inhibitory concentration (MIC)
[9] = test system: Clostridium botulinum NR 26ll; assay: microbe, parasite or virus in culture; assay type: cell-based; details: NR26LL, read-out: minimum inhibitory concentration (MIC)
[10] = test system: Staphylococcus aureus FDA 209P JC-1; assay: in vitro antibacterial activity, standard agar dilution method; assay type: cell-based; details: FDA209P, read-out: minimum inhibitory concentration (MIC)
[11] = test system: Propionibacterium acnes ATCC 11828; assay: as above; assay type: cell-based; details: Cutibacterium acnes, ATCC11828, anaerobic, read-out: minimum inhibitory concentration (MIC)
[12] = test system: Fusobacterium varium ATCC 8501; assay: as above; assay type: cell-based; details: ATCC8501, anaerobic, read-out: minimum inhibitory concentration (MIC)
[13] = ML4707, po, p.o. at time of injection
[14] = ML4707, sc, s.c. at time of injection

With CN1CCN(c2c(F)cc3c(=O)c(C(=O)O)cn4c3c2OCN4C)CC1 [Example 5, 9-fluoro-3-methyl-10-(4-methyl-1-piperazinyl)-7-oxo-2,3-dihydro-7H-pyrido[3,2,1-ij]-1,3,4-benzoxadiazine-6-carboxylic acid] the MIC [1] was 0.78 µg/mL (≈ 2.15 µM), the MIC [2] was 0.1 µg/mL (≈ 0.276 µM) and the MIC [3] was 0.39 µg/mL (≈ 1.08 µM). The MIC [4] was 0.78 µg/mL (≈ 2.15 µM), the ED50 [5, 13] was 0.11 mg/kg and the ED50 [5, 14] was 0.06 mg/kg. For the same molecule, the ED50 [6] was 10.3 mg/kg, the MIC [7] was 0.013 µg/mL (≈ 0.0359 µM) and the MIC [8] was 0.2 µg/mL (≈ 0.552 µM). The MIC [9] was 0.1 µg/mL (≈ 0.276 µM), the MIC ([10]; Staphylococcus aureus) was 0.39 µg/mL (≈ 1.08 µM) and the MIC [11] was 0.78 µg/mL (≈ 2.15 µM). The MIC [12] was 12.5 µg/mL (≈ 34.5 µM).
With CN1COc2c(N3CCC(N)C3)c(F)cc3c(=O)c(C(=O)O)cn1c23 (stereo not shown) [Example 30, 10-(3-amino-1-pyrrolidinyl)-9-fluoro-3-methyl-7-oxo-2,3-dihydro-7H-pyrido[3,2,1-ij]-1,3,4-benzoxadiazine-6-carboxylic acid] the MIC [1] was 0.78 µg/mL (≈ 2.24 µM), the MIC [2] was 0.1 µg/mL (≈ 0.287 µM) and the MIC [3] was 0.2 µg/mL (≈ 0.574 µM). For the same molecule, the MIC [4] was 0.2 µg/mL (≈ 0.574 µM), the ED50 [5, 13] was 0.62 mg/kg and the ED50 [5, 14] was 0.1 mg/kg. It also gave an ED50 [6] of 65.9 mg/kg, an MIC [7] of 0.0065 µg/mL (≈ 0.0187 µM) and an MIC [8] of 1.56 µg/mL (≈ 4.48 µM). It also gave an MIC [9] of 0.013 µg/mL (≈ 0.0373 µM), an MIC ([10]; Staphylococcus aureus FDA 209P JC-1, aerobic, agar dilution) of 0.05 µg/mL (≈ 0.144 µM) and an MIC [11] of 0.78 µg/mL (≈ 2.24 µM).
